This is an account of results in patent US8927551B2, “Isoxazolines as inhibitors of fatty acid amide hydrolase” (Infinity Pharmaceuticals, Inc., priority 2009, dated 2015).

The target of this assay is T1, human FAAH (Homo sapiens, UniProt O00519).
T1 construct: host or cells: COS-7 cells, transient transfection; 13,000 g membrane fraction solubilised in 1% Triton X-100
T1 sequence (O00519 1-579): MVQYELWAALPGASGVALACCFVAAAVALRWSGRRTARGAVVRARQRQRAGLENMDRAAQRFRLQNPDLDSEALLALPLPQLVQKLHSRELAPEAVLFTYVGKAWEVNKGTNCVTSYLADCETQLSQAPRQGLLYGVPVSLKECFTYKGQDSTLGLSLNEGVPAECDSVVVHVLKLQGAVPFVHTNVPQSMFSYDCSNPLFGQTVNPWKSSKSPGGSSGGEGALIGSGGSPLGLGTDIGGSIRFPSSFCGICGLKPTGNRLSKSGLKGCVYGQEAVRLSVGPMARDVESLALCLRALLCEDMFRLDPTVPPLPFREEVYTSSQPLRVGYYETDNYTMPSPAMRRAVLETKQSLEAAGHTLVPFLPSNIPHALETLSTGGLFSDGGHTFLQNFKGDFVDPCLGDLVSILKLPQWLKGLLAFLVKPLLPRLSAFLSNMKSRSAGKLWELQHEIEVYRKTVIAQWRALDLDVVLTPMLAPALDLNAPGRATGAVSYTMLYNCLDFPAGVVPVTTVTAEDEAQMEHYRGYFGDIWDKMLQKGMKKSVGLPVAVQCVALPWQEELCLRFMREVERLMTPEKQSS
Put plainly: Inhibition of human FAAH (fluorescence assay, AMC Arachidonoyl Amide substrate). It is filed as biochemical. The settings on record: solubilized human FAAH from transfected COS-7 cells; 30 minutes preincubation; 20 μM AMC-Arachidonoyl substrate; 4 hours at room temperature. On the procedure: Human FAAH Preparation: COS-7 cells were split the day before, 1:5 into 150 mm×25 mm cell culture dishes (Corning Inc., Cat. No. 430599). Transient transfection took place at 30-40% confluency according to FuGENE 6 Transfection Reagent (Roche, Cat. No. 11814 443 001).
Transfection Procedure: The FuGENE transfection 6 reagent (45 uL) was added to 1410 μL of media (DMEM, serum free without pen/strep) in a 15 mL conical tube and incubated at room temp for 5 minutes, followed by the addition of FAAH plasmid DNA (15 μg) (OriGene Cat. No. TC119221, Genbank Accession No. NM 001441.1, 0.67 ug/uL) and a further incubation of 15 minutes at room temperature. The resulting solution was added into one dish of 30-40% confluent COS-7 cells in a drop-wise manner. The COS-7 cell dish was subsequently incubated for 48 hours. The cells are then harvested.
Harvest procedure: Media was aspirated from the dishes and the cells rinsed with 10 mL PBS. The PBS was removed and 3 mL of PBS added to the dish. The dish was scraped to resuspend the cells, and the subsequent cell suspension collected into a 15 mL conical tube. The cells were pelleted by centrifugation at 1200 rpm for 5 minutes in a bench top centrifuge. PBS was removed and the cell pellet snap frozen in liquid nitrogen and stored at −80° C.
COS-7 Cells—FAAH Purification: • (1) Fractionation: Frozen cell pellets from transient transfections were thawed on ice and resuspended in 12.5 mM Hepes pH 8.0, 100 mM NaCl, 1 mM EDTA (10 mL/0.2 g cell pellet). The pellets were dounce homogenized and then sonicated to produce cell extract. The cell extract was subsequently centrifuged at 1000 g to remove cellular debris. The pellet was discarded and the supernatant centrifuged at 13,000 g for 20 minutes. The pellet contained membrane bound FAAH. The supernatant was discarded and the pellet resolubilized. • (2) Re-solubilization: The fraction of interest, (13,000 g, membrane fraction) was re-suspended in 2.3 mL re-suspension buffer (20 mM Hepes pH 7.8, 10% v/v Glycerol, 1 mM EDTA, 1% Triton X-100) and the sample incubated on ice for 1 hour and then centrifuged to remove any particulate matter. The supernatant containing solubilized human FAAH was aliquoted and snap frozen in liquid nitrogen and stored at −80° C. until use. • (3) Characterization: Protein Concentration determined by Bradford assay. • SDS gel and Western blot to confirm presence of FAAH • FAAH activity assay • Km determination—96-well assay • Linear dependence—96-well assay • Standard compound Ki determination—384-well assay
Human FAAH assay; Experimental Protocol: A 0.1 mg/mL Human FAAH solution was made up in FAAH reaction buffer, and 24 ul pipeted into a 384 well plate. To this was added 1 μL of a 3 fold serially diluted inhibitor from a DMSO stock solution. The FAAH solution and inhibitor were incubated for 30 minutes at room temperature. The FAAH reaction was initiated by the addition of 25 μL of 40 μM AMC Arachidonoyl Amide in FAAH reaction buffer, yielding a final reaction human FAAH preparation concentration of 0.05 mg/ml and AMC-Arachidonoyl substrate concentration of 20 μM, reaction volume 50 μL. The reaction was allowed to proceed for 4 hours at room temperature. The reaction was stopped by the addition of 25 μL 12 μM a-ketoheterocycle (Cayman Chemicals, catalogue # 10435). The microtiter plate was read in the envision plate reader.
The raw fluorescence was plotted on the y axis and the inhibitor concentration on the x axis to give a dose response inhibition curve. The data was fitted to a single site competitive inhibition equation, fixing the Km for the human enzyme to 12 μM and 9 μM respectively.

Molecules are shown by their SMILES.

For `BrC1=NO[C@H](c2ccc3ncccc3c2)C1` [II-9b], the Ki – broadly, the dissociation constant of the complex between target and ligand, obtained from inhibition or displacement – is no more than 100 nM.
With `C[C@@H]1C(Br)=NO[C@@H]1c1cnc(-c2ccccc2)s1` [II-19b] the figure was no more than 100 nM; with `O=C(O)c1ccc(OC2=NO[C@H](c3ccc(-c4cccnc4)s3)C2)cn1` [II-27b], no more than 100 nM; with `O=C(O)c1ccc(OC2=NO[C@@H](c3ccc(-c4cccnc4)s3)C2)cn1` [II-27a], no more than 100 nM.
With `CS(=O)(=O)c1ccc(OC2=NO[C@@H](c3cnc(-c4ccccc4)s3)C2)cn1` [II-28a], the Ki is no more than 100 nM.
For `Cc1nc(-c2ccccc2)sc1[C@]1(C)CC(Br)=NO1` [II-24b] the value was 100 to 1000 nM; for `BrC1=NO[C@H](c2csc(-c3ccccc3)n2)C1` [II-5b], no less than 1000 nM; for `BrC1=NO[C@H](c2cnc3ccccc3c2)C1` [II-10b], no more than 100 nM.
For `BrC1=NO[C@@H](c2cccnc2)C1` [II-2a] the value was no less than 1000 nM; for `C[C@@H]1C(Br)=NO[C@H]1c1cnc(-c2ccccc2)s1` [II-20a], no less than 1000 nM.
With `CS(=O)(=O)c1ccc(OC2=NO[C@H](c3cnc(-c4ccccc4)s3)C2)cn1` [II-28b] the figure was no more than 100 nM; with `C[C@]1(c2cnc(-c3ccccc3)s2)CC(Oc2ccc(S(C)(=O)=O)nc2)=NO1` [II-29a], no more than 100 nM.
Take `BrC1=NO[C@@H](c2ccc3nccnc3c2)C1` [II-11a]: the Ki is no more than 100 nM.
Turning to `BrC1=NO[C@H](c2ccc(-c3cccnc3)s2)C1` [II-25b], the Ki was no more than 100 nM.
With `c1ccc(-c2ncc([C@@H]3CC(Oc4cccnc4)=NO3)s2)cc1` [II-21b] the figure was no more than 100 nM; with `C[C@@]1(c2cnc(-c3ccccc3)s2)CC(Oc2cccnc2)=NO1` [II-23b], no more than 100 nM; with `BrC1=NO[C@H](c2ccc(-c3ccccc3)s2)C1` [II-7b], no more than 100 nM.
With `CC(C)(C)OC(=O)N1CCC([C@H]2CC(Br)=NO2)CC1` [II-16a] the figure was no more than 100 nM; with `CC(C)(C)OC(=O)N1CCN(C[C@@H]2CC(Br)=NO2)CC1` [II-14b], no more than 100 nM; with `BrC1=NO[C@@H](c2ccc3ncccc3c2)C1` [II-9a], no more than 100 nM.
With `O[C@H](CNC1=NO[C@@H](c2cc(-c3ccccc3)cs2)C1)c1ccccc1` [II-30a] the figure was no less than 1000 nM.
Consider `c1cncc(-c2ccc([C@@H]3CC(Oc4cncnc4)=NO3)s2)c1` [II-26b], for which the Ki was no more than 100 nM.
For `BrC1=NO[C@H](c2ccccn2)C1` [II-3b] the value was no less than 1000 nM.
With `c1ccc(-c2ncc([C@H]3CC(Oc4cccnc4)=NO3)s2)cc1` [II-21a] the figure was no more than 100 nM.
On to `Clc1ccc(-c2ncc([C@H]3CC(Br)=NO3)s2)cc1` [II-17a], for which the Ki was no more than 100 nM.
Compound `BrC1=NO[C@@H](c2ccncc2)C1` [II-1a] registered an inhibitory constant (Ki) of no less than 1000 nM.
With `O[C@@H](CNC1=NO[C@@H](c2cc(-c3ccccc3)cs2)C1)c1ccccc1` [II-31a] the figure was no less than 1000 nM; with `BrC1=NO[C@@H](c2ccc(-c3ccccc3)s2)C1` [II-7a], no more than 100 nM; with `C[C@@]1(c2cnc(-c3ccccc3)s2)CC(Oc2ccc(S(C)(=O)=O)nc2)=NO1` [II-29b], no more than 100 nM.
For `BrC1=NO[C@@H](c2ccccn2)C1` [II-3a] the value was no less than 1000 nM.
For `O=C(OCc1ccccc1)N1CCC([C@@H]2CC(Br)=NO2)CC1` [II-15b] the value was 100 to 1000 nM.
`BrC1=NO[C@@H](c2cnc(-c3ccccc3)s2)C1` [II-6a] had a Ki of no more than 100 nM.
For `BrC1=NO[C@@H](c2cnn(-c3ccccc3)c2)C1` [II-4a] the value was 100 to 1000 nM; for `BrC1=NO[C@@H](c2ccc(-c3cccnc3)s2)C1` [II-25a], no more than 100 nM.
For `C[C@@]1(c2cnc(-c3ccccc3)s2)CC(Oc2cncnc2)=NO1` [II-22b] the value was no more than 100 nM; for `C[C@H]1C(Br)=NO[C@H]1c1cnc(-c2ccccc2)s1` [II-19a], no more than 100 nM.
For `c1cncc(-c2ccc([C@H]3CC(Oc4cncnc4)=NO3)s2)c1` [II-26a] the value was no more than 100 nM; for `BrC1=NO[C@@H](c2csc(-c3ccccc3)n2)C1` [II-5a], no less than 1000 nM; for `BrC1=NO[C@@H](c2cc(-c3ccccc3)cs2)C1` [II-8a], no more than 100 nM.
In the case of `Cc1nc(-c2ccccc2)sc1[C@@]1(C)CC(Br)=NO1` [II-24a], the Ki lay within 100 to 1000 nM.
For `C[C@]1(c2cnc(-c3ccccc3)s2)CC(Oc2cncnc2)=NO1` [II-22a] the value was no more than 100 nM; for `O[C@@H](CNC1=NO[C@H](c2cc(-c3ccccc3)cs2)C1)c1ccccc1` [II-31b], no less than 1000 nM; for `Clc1ccc(-c2ncc([C@@H]3CC(Br)=NO3)s2)cc1` [II-17b], no more than 100 nM.
With `BrC1=NO[C@@H](c2cnc3ccccc3c2)C1` [II-10a] the figure was no more than 100 nM; with `CC(C)(C)OC(=O)N1CCC([C@@H]2CC(Br)=NO2)CC1` [II-16b], no more than 100 nM.
With `BrC1=NO[C@H](c2cc(-c3ccccc3)cs2)C1` [II-8b] the figure was no more than 100 nM.
`CC(C)(C)OC(=O)N1CCN(C[C@H]2CC(Br)=NO2)CC1` [II-14a] showed a Ki of no more than 100 nM.
With `BrC1=NO[C@H](c2cnc(-c3ccccc3)s2)C1` [II-6b] the figure was no more than 100 nM.
On to `BrC1=NO[C@H](c2cccnc2)C1` [II-2b], for which the Ki was no less than 1000 nM.
For the compound `O=C(OCc1ccccc1)N1CCC([C@H]2CC(Br)=NO2)CC1` [II-15a], the Ki lay in the range of 100 to 1000 nM.
With `BrC1=NO[C@H](c2cnn(-c3ccccc3)c2)C1` [II-4-b] the figure was 100 to 1000 nM.
`C[C@@]1(c2cnc(-c3ccccc3)s2)CC(Br)=NO1` [II-18b] displayed a Ki of no more than 100 nM.
In turn, `BrC1=NO[C@H](c2ccc3nccnc3c2)C1` [II-11b] gave an inhibition constant Ki of no more than 100 nM.
Compound `C[C@H]1C(Br)=NO[C@@H]1c1cnc(-c2ccccc2)s1` [II-20b] yielded a Ki of no less than 1000 nM.
For `C[C@]1(c2cnc(-c3ccccc3)s2)CC(Oc2cccnc2)=NO1` [II-23a] the value was no more than 100 nM.
`C[C@]1(c2cnc(-c3ccccc3)s2)CC(Br)=NO1` [II-18a] showed a Ki of no more than 100 nM.
For `CC(C)(C)OC(=O)Nc1nc2ccc([C@@H]3CC(Br)=NO3)cc2s1` [II-13b] the value was 100 to 1000 nM; for `BrC1=NO[C@H](c2ccncc2)C1` [II-1b], no less than 1000 nM; for `CC(C)(C)OC(=O)Nc1nc2ccc([C@H]3CC(Br)=NO3)cc2s1` [II-13a], 100 to 1000 nM.
